Usually MIC stands for the least concentration at which growth counts as inhibited.

Common to all, as to format: functional
The test system of assay [1] is Streptococcus pneumoniae. Briefly: In vitro minimum inhibitory concentration against Streptococcus pneumoniae ATCC 6303 after incubation in air at 35 degree C for 24 hr using agar dilution method. The following applies: ATCC 6303, 24 h.
Assay [2] concerns Escherichia coli. Kind of assay: Minimum inhibitory concentration against wild-type Escherichia coli strain.
Assay [3] deals with Escherichia coli. Briefly: Minimum inhibitory concentration against […] AB pump deficient Escherichia coli strain.
Assay [4] relates to Streptococcus pyogenes. Kind of assay: In vitro minimum inhibitory concentration against Streptococcus pyogenes ATCC 19615 after incubation in air at 35 degree C for 24 hr using agar dilution method. The following applies: ATCC 19615, 24 h. Background: In agar dilution, organisms are placed on agar that contains the substance at set levels.
For assay [5], the system named is Staphylococcus aureus. Briefly: In vitro minimum inhibitory concentration against methicillin-resistant Staphylococcus aureus 562 after incubation in air at 35 degree C for 24 hr using agar dilution method.
In assay [6] the test system is Escherichia coli. Kind of assay: Minimum inhibitory concentration against Tol C pump deficient Escherichia coli strain.
Assay [7] relates to Enterococcus faecium. Briefly: In vitro minimum inhibitory concentration against vancomycin-resistant Enterococcus faecium 6A after incubation in air at 35 degree C for 24 hr using agar dilution method.
Assay [8] concerns Enterococcus faecalis. Kind of assay: In vitro minimum inhibitory concentration against Enterococcus faecalis ATCC 29212 after incubation in air at 35 degree C for 24 hr using agar dilution method. As to conditions: ATCC 29212, 24 h.
The test system of assay [9] is Staphylococcus aureus. Kind of assay: In vitro minimum inhibitory concentration against Staphylococcus aureus ATCC 25923 after incubation in air at 35 degree C for 24 hr using agar dilution method. As to conditions: ATCC 25923, 24 h.

`CC(=O)NC[C@H]1CN(c2ccc(N3CCN(Cc4ccc([N+](=O)[O-])o4)CC3)c(F)c2)C(=O)O1.Cl` [RANBEZOLID CHLORIDE]: the minimal inhibitory concentration (MIC) in assay [1] was 0.125 µg/mL; in assay [2], not above 16 µg/mL; in [3], 2 µg/mL; in assay [4] it was 0.125 µg/mL; in assay [5], 1 µg/mL; in assay [6], 2 µg/mL. For the same compound, the MIC in assay [7] amounted to 2 µg/mL; in assay [8], 2 µg/mL; in assay [9] it was 1 µg/mL.

The values above are taken from ChEMBL document CHEMBL1141053, “Synthesis and SAR of novel oxazolidinones: discovery of ranbezolid” (2005).
